Results: patent US12679843B2, “Pyrrolopyrimidine amines as complement inhibitors” (BioCryst Pharmaceuticals, Inc., priority 2020, dated 2026)

Biological target: Factor D (Homo sapiens, UniProt P00746)
Test: Factor D esterolytic assay (Z-Lys-SBzl thioester substrate, DTNB, 405 nm)
Format: biochemical
Conditions: substrate Z-Lys-SBzl 1.29 mM, 100 mM HEPES, 500 mM NaCl, pH 7.5, 10% DMSO, tested a minimum of three times
Summary of the method: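 Run in pH 7.5 HEPES (100 mM) with 500 mM NaCl and 10% DMSO, with compound preincubated at room temperature or not before adding 1.29 mM Z-Lys-SBzl. Free thiol released by Factor D reacts with DTNB, and rate is followed at 405 nm minus 690 nm over 600 s. IC50 derives from rate-based inhibition, minimum three replicates.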

Chain of Factor D (P00746 26-253): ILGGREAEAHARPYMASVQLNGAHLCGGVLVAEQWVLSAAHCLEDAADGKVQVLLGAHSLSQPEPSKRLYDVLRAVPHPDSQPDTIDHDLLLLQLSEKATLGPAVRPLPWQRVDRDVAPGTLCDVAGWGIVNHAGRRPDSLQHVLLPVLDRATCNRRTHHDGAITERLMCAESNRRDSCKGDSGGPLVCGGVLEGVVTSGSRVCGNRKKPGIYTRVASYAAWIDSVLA

SMILES	IC50 [nM]
CNc1ncnc2c1cnn2CC(=O)N1CCC[C@H]1C(=O)NCc1cccc(Cl)c1F [Compound 76b, (S)—N-(3-chloro-2-fluorobenzyl)-1-(2-(4-(methylamino)-1H-pyrazolo[3,4-d]pyrimidin-1-yl)acetyl)pyrrolidine-2-carboxamide]	> 1000
Nc1ncnc2c1cnn2CC(=O)N1CCC[C@H]1C(=O)Nc1cccc(Br)n1 [Compound 77b, (S)-1-(2-(4-amino-1H-pyrazolo[3,4-d]pyrimidin-1-yl)acetyl)-N-(6-bromopyridin-2-yl)pyrrolidine-2-carboxamide]	> 1000
Nc1ncnc2c1cnn2CC(=O)N1CCC[C@H]1C(=O)NCc1cccc(Cl)c1F [Compound 78a, (S)-1-(2-(4-amino-1H-pyrazolo[3,4-d]pyrimidin-1-yl)acetyl)-N-(3-chloro-2-fluorobenzyl)pyrrolidine-2-carboxamide]	100 to 1000
Nc1ncnc2c1cnn2CC(=O)N1[C@@H]2C[C@@H]2C[C@H]1C(=O)Nc1cccc(Br)n1 [Compound 79a, (1R,3S,5R)-2-(2-(4-amino-1H-pyrazolo[3,4-d]pyrimidin-1-yl)acetyl)-N-(6-bromopyridin-2-yl)-2-azabicyclo[3.1.0]hexane-3-carboxamide]	100 to 1000
Nc1ncnc2c1ccn2CC(=O)N1[C@@H]2C[C@@H]2C[C@H]1C(=O)Nc1cccc(Br)n1 [Compound 80a, (1R,3S,5R)-2-(2-(4-amino-7H-pyrrolo[2,3-d]pyrimidin-7-yl)acetyl)-N-(6-bromopyridin-2-yl)-2-azabicyclo[3.1.0]hexane-3-carboxamide]	< 100
Nc1ccnc2c1ccn2CC(=O)N1[C@@H]2C[C@@H]2C[C@H]1C(=O)Nc1cccc(Br)n1 [Compound 83d, (1R,3S,5R)-2-(2-(4-amino-1H-pyrrolo[2,3-b]pyridin-1-yl)acetyl)-N-(6-bromopyridin-2-yl)-2-azabicyclo[3.1.0]hexane-3-carboxamide]	100 to 1000
Nc1ncnc2c1ncn2CC(=O)N1[C@@H]2C[C@@H]2C[C@H]1C(=O)Nc1cccc(Br)n1 [Compound 84a, (1R,3S,5R)-2-(2-(6-amino-9H-purin-9-yl)acetyl)-N-(6-bromopyridin-2-yl)-2-azabicyclo[3.1.0]hexane-3-carboxamide]	100 to 1000
C[C@H](NC(=O)[C@@H]1C[C@H]2C[C@H]2N1C(=O)Cn1ccc2c(N)ncnc21)c1cccc(Cl)c1F [Compound 86b, (1R,3S,5R)-2-(2-(4-amino-7H-pyrrolo[2,3-d]pyrimidin-7-yl)acetyl)-N—((S)-1-(3-chloro-2-fluorophenyl)ethyl)-2-azabicyclo[3.1.0]hexane-3-carboxamide]	100 to 1000
Nc1nc(N)c2ccn(CC(=O)N3[C@@H]4C[C@@H]4C[C@H]3C(=O)Nc3cccc(Br)n3)c2n1 [Compound 87f, (1R,3S,5R)—N-(6-bromopyridin-2-yl)-2-(2-(2,4-diamino-7H-pyrrolo[2,3-d]pyrimidin-7-yl)acetyl)-2-azabicyclo[3.1.0]hexane-3-carboxamide]	> 1000
Nc1nccc2c1ccn2CC(=O)N1[C@@H]2C[C@@H]2C[C@H]1C(=O)NCc1cccc(Cl)c1F [Compound 88f, (1R,3S,5R)-2-(2-(4-amino-1H-pyrrolo[3,2-c]pyridin-1-yl)acetyl)-N-(3-chloro-2-fluorobenzyl)-2-azabicyclo[3.1.0]hexane-3-carboxamide]	> 1000
Nc1ncc2ncn(CC(=O)N3[C@@H]4C[C@@H]4C[C@H]3C(=O)Nc3cccc(Br)n3)c2n1 [Compound 89b, (1R,3S,5R)-2-(2-(2-amino-9H-purin-9-yl)acetyl)-N-(6-bromopyridin-2-yl)-2-azabicyclo[3.1.0]hexane-3-carboxamide]	100 to 1000
Nc1nc(Cl)nc2c1ccn2CC(=O)N1[C@@H]2C[C@@H]2C[C@H]1C(=O)Nc1cccc(Br)n1 [Compound 90d, (1R,3S,5R)-2-(2-(4-amino-2-chloro-7H-pyrrolo[2,3-d]pyrimidin-7-yl)acetyl)-N-(6-bromopyridin-2-yl)-2-azabicyclo[3.1.0]hexane-3-carboxamide]	> 1000
Nc1ncnc2c1ncn2CC(=O)N1[C@@H]2C[C@@H]2C[C@H]1C(=O)NCc1cccc(Cl)c1F [Compound 91a, (1R,3S,5R)-2-(2-(6-amino-9H-purin-9-yl)acetyl)-N-(3-chloro-2-fluorobenzyl)-2-azabicyclo[3.1.0]hexane-3-carboxamide]	< 100
Nc1nc(N)c2ncn(CC(=O)N3[C@@H]4C[C@@H]4C[C@H]3C(=O)Nc3cccc(Br)n3)c2n1 [Compound 92b, (1R,3S,5R)—N-(6-bromopyridin-2-yl)-2-(2-(2,6-diamino-9H-purin-9-yl)acetyl)-2-azabicyclo[3.1.0]hexane-3-carboxamide]	> 1000
Nc1ncnc2c1ncn2CC(=O)N1[C@@H]2C[C@@H]2C[C@H]1C(=O)OCc1ccccc1 [Compound 94b, (1R,3S,5R)-benzyl 2-(2-(6-amino-9H-purin-9-yl)acetyl)-2-azabicyclo[3.1.0]hexane-3-carboxylate]	> 1000
Nc1ncnc2c1ncn2CC(=O)N1[C@@H]2C[C@@H]2C[C@H]1C(=O)N[C@@H]1C[C@H]1c1ccccc1Cl [Compound 98b, (1R,3S,5R)-2-(2-(6-amino-9H-purin-9-yl)acetyl)-N-((1R,2S)-2-(2-chlorophenyl)cyclopropyl)-2-azabicyclo[3.1.0]hexane-3-carboxamide]	100 to 1000
Nc1ncnc2c1ncn2CC(=O)N1[C@@H]2C[C@@H]2C[C@H]1C(=O)NCCOC(F)(F)F [Compound 99b, (1R,3S,5R)-2-(2-(6-amino-9H-purin-9-yl)acetyl)-N-(2-(trifluoromethoxy)ethyl)-2-azabicyclo[3.1.0]hexane-3-carboxamide]	> 1000
CC1CC(CNC(=O)[C@@H]2C[C@H]3C[C@H]3N2C(=O)Cn2cnc3c(N)ncnc32)C1 (stereo partly drawn) [Compound 100b, (1R,3S,5R)-2-(2-(6-amino-9H-purin-9-yl)acetyl)-N-((3-methylcyclobutyl)methyl)-2-azabicyclo[3.1.0]hexane-3-carboxamide]	> 1000
Nc1ncnc2c1ncn2CC(=O)N1[C@@H]2C[C@@H]2C[C@H]1C(=O)NCc1ccccc1 [Compound 101b, (1R,3S,5R)-2-(2-(6-amino-9H-purin-9-yl)acetyl)-N-benzyl-2-azabicyclo[3.1.0]hexane-3-carboxamide]	100 to 1000
Nc1ncnc2c1ncn2CC(=O)N1[C@@H]2C[C@@H]2C[C@H]1C(=O)NC1CCCC(Cl)(Cl)C1 (stereo partly drawn) [Compound 102b, (1R,3S,5R)-2-(2-(6-amino-9H-purin-9-yl)acetyl)-N-(3,3-dichlorocyclohexyl)-2-azabicyclo[3.1.0]hexane-3-carboxamide]	100 to 1000
Nc1ncnc2c1ncn2CC(=O)N1[C@@H]2C[C@@H]2C[C@H]1C(=O)Nc1cccc(OC(F)(F)F)c1 [Compound 107b, (1R,3S,5R)-2-(2-(6-amino-9H-purin-9-yl)acetyl)-N-(3-(trifluoromethoxy)phenyl)-2-azabicyclo[3.1.0]hexane-3-carboxamide]	> 1000

The remaining lines, values ahead:

IC50 [nM]	SMILES
< 100	Nc1ncnc2c1ccn2CC(=O)N1[C@@H]2C[C@@H]2C[C@H]1C(=O)NCc1cccc(Cl)c1F [Compound 81a, (1R,3S,5R)-2-(2-(4-amino-7H-pyrrolo[2,3-d]pyrimidin-7-yl)acetyl)-N-(3-chloro-2-fluorobenzyl)-2-azabicyclo[3.1.0]hexane-3-carboxamide]
> 1000	CNc1ncnc2c1cnn2CC(=O)N1[C@@H]2C[C@@H]2C[C@H]1C(=O)Nc1cccc(Br)n1 [Compound 82a, (1R,3S,5R)—N-(6-bromopyridin-2-yl)-2-(2-(4-(methylamino)-1H-pyrazolo[3,4-d]pyrimidin-1-yl)acetyl)-2-azabicyclo[3.1.0]hexane-3-carboxamide]
> 1000	Nc1cccc2c1ccn2CC(=O)N1[C@@H]2C[C@@H]2C[C@H]1C(=O)Nc1cccc(Br)n1 [Compound 85b, (1R,3S,5R)-2-(2-(4-amino-1H-indol-1-yl)acetyl)-N-(6-bromopyridin-2-yl)-2-azabicyclo[3.1.0]hexane-3-carboxamide]
100 to 1000	Nc1ncnc2c1ncn2CC(=O)N1C[C@H](F)C[C@H]1C(=O)Nc1cccc(Br)n1 [Compound 93a, (2S,4R)-1-(2-(6-amino-9H-purin-9-yl)acetyl)-N-(6-bromopyridin-2-yl)-4-fluoropyrrolidine-2-carboxamide]
> 1000	CC(C)(C)CCNC(=O)[C@@H]1C[C@H]2C[C@H]2N1C(=O)Cn1cnc2c(N)ncnc21 [Compound 95c, (1R,3S,5R)-2-(2-(6-amino-9H-purin-9-yl)acetyl)-N-(3,3-dimethylbutyl)-2-azabicyclo[3.1.0]hexane-3-carboxamide]
> 1000	CN(C)c1nc(N)c2ncn(CC(=O)N3[C@@H]4C[C@@H]4C[C@H]3C(=O)NCc3cccc(Cl)c3F)c2n1 [Compound 96e, (1R,3S,5R)-2-(2-(6-amino-2-(dimethylamino)-9H-purin-9-yl)acetyl)-N-(3-chloro-2-fluorobenzyl)-2-azabicyclo[3.1.0]hexane-3-carboxamide]
> 1000	CC1(C)CCCC(NC(=O)[C@@H]2C[C@H]3C[C@H]3N2C(=O)Cn2cnc3c(N)ncnc32)C1 (stereo partly drawn) [Compound 97b, (1R,3S,5R)-2-(2-(6-amino-9H-purin-9-yl)acetyl)-N-(3,3-dimethylcyclohexyl)-2-azabicyclo[3.1.0]hexane-3-carboxamide]
100 to 1000	Nc1ncnc2c1ncn2CC(=O)N1[C@@H]2C[C@@H]2C[C@H]1C(=O)NCC1CC1(Cl)Cl (stereo partly drawn) [Compound 103b, (1R,3S,5R)-2-(2-(6-amino-9H-purin-9-yl)acetyl)-N-((2,2-dichlorocyclopropyl)methyl)-2-azabicyclo[3.1.0]hexane-3-carboxamide]
< 100	Nc1ncnc2c1ncn2CC(=O)N1C[C@H](F)C[C@H]1C(=O)NCc1cccc(Cl)c1F [Compound 104a, (2S,4R)-1-(2-(6-amino-9H-purin-9-yl)acetyl)-N-(3-chloro-2-fluorobenzyl)-4-fluoropyrrolidine-2-carboxamide]
100 to 1000	Nc1ncnc2c1ncn2CC(=O)N1CCS[C@H]1C(=O)NCc1cccc(Cl)c1F [Compound 105b, (S)-3-(2-(6-amino-9H-purin-9-yl)acetyl)-N-(3-chloro-2-fluorobenzyl)thiazolidine-2-carboxamide]
